What was measured:
Experiment in all cases: relative viability (nuclei count vs DMSO), 5 days (fraction); higher = more cells survive
[1] = system: NCI-H1648
Method in brief: (§1)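 The day after seeding in 1536-well plates, lung cancer cell lines were treated by pin tool with a single drug, or with a fixed anchor-drug dose together with five library-drug doses (not always all listed) in √10 steps. After 5 days, a combined fix-and-stain solution (final 0.05% Triton X-100, 1% formaldehyde, 1 ug/ml Hoechst) was added. Nuclei counted on 4× images gave relative viability as treated counts over vehicle counts, reported as the median of duplicate plates.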

[2] = system: NCI-H2009
Method in brief: as §1

[3] = system: HCC-78
Method in brief: as §1

[4] = system: NCI-H358
Method in brief: as §1

[5] = system: NCI-H661
Method in brief: as §1

[6] = system: EBC-1
Method in brief: as §1

[7] = system: A549
Method in brief: as §1

[8] = system: IA-LM
Method in brief: as §1

[9] = system: NCI-H2342
Method in brief: as §1

[10] = system: NCI-H460
Method in brief: as §1

[11] = system: NCI-H522
Method in brief: as §1

[12] = system: Calu-6
Method in brief: as §1

[13] = system: NCI-H1703
Method in brief: as §1

[14] = system: NCI-H1299
Method in brief: as §1

[15] = system: NCI-H1623
Method in brief: as §1

Nc1ccn([C@@H]2O[C@H](CO)[C@@H](O)[C@@H]2O)c(=O)n1 [Cytarabine] + O=C(c1cc(Cc2n[nH]c(=O)c3ccccc23)ccc1F)N1CCN(C(=O)C2CC2)CC1 [Olaparib] (partner 8 µM) was tested, and the relative viability ([1]; first compound 0.005 µM) was 0.904, the relative viability ([1]; first compound 0.01581 µM) was 0.793 and the relative viability ([1]; first compound 0.05 µM) was 0.954. The relative viability ([1]; first compound 0.1581 µM) was 0.319, the relative viability ([1]; first compound 0.5 µM) was 0.377 and the relative viability ([2]; first compound 0.005 µM) was 0.744. The relative viability ([2]; first compound 0.01581 µM) was 0.752, the relative viability ([2]; first compound 0.05 µM) was 0.724 and the relative viability ([2]; first compound 0.1581 µM) was 0.644. It also gave a relative viability ([2]; first compound 0.5 µM) of 0.202, a relative viability ([3]; first compound 0.005 µM) of 0.906 and a relative viability ([3]; first compound 0.01581 µM) of 0.849. The relative viability ([3]; first compound 0.05 µM) was 0.583, the relative viability ([3]; first compound 0.1581 µM) was 0.419 and the relative viability ([3]; first compound 0.5 µM) was 0.278. The relative viability ([4]; first compound 0.005 µM) was 0.443, the relative viability ([4]; first compound 0.01581 µM) was 0.491 and the relative viability ([4]; first compound 0.05 µM) was 0.379. It also gave a relative viability ([4]; first compound 0.1581 µM) of 0.145, a relative viability ([4]; first compound 0.5 µM) of 0.115 and a relative viability ([5]; first compound 0.005 µM) of 0.677. For the same compound, the relative viability ([5]; first compound 0.01581 µM) was 0.773, the relative viability ([5]; first compound 0.05 µM) was 0.646 and the relative viability ([5]; first compound 0.1581 µM) was 0.518. It also gave a relative viability ([5]; first compound 0.5 µM) of 0.398, a relative viability ([6]; first compound 0.005 µM) of 0.725 and a relative viability ([6]; first compound 0.01581 µM) of 0.569. It also gave a relative viability ([6]; first compound 0.05 µM) of 0.476, a relative viability ([6]; first compound 0.1581 µM) of 0.375 and a relative viability ([6]; first compound 0.5 µM) of 0.241. The relative viability ([7]; first compound 0.005 µM) was 0.318, the relative viability ([7]; first compound 0.01581 µM) was 0.242 and the relative viability ([7]; first compound 0.05 µM) was 0.0968. For the same compound, the relative viability ([7]; first compound 0.1581 µM) was 0.0579, the relative viability ([7]; first compound 0.5 µM) was 0.0331 and the relative viability ([8]; first compound 0.005 µM) was 0.626. For the same compound, the relative viability ([8]; first compound 0.01581 µM) was 0.714, the relative viability ([8]; first compound 0.05 µM) was 0.55 and the relative viability ([8]; first compound 0.1581 µM) was 0.372. For the same compound, the relative viability ([8]; first compound 0.5 µM) was 0.268, the relative viability ([9]; first compound 0.005 µM) was 0.477 and the relative viability ([9]; first compound 0.01581 µM) was 0.477. The relative viability ([9]; first compound 0.05 µM) was 0.468, the relative viability ([9]; first compound 0.1581 µM) was 0.389 and the relative viability ([9]; first compound 0.5 µM) was 0.31. For the same compound, the relative viability ([10]; first compound 0.005 µM) was 0.355, the relative viability ([10]; first compound 0.01581 µM) was 0.367 and the relative viability ([10]; first compound 0.05 µM) was 0.237. It also gave a relative viability ([10]; first compound 0.1581 µM) of 0.0662, a relative viability ([10]; first compound 0.5 µM) of 0.0537 and a relative viability ([11]; first compound 0.005 µM) of 0.654. For the same compound, the relative viability ([11]; first compound 0.01581 µM) was 0.602, the relative viability ([11]; first compound 0.05 µM) was 0.813 and the relative viability ([11]; first compound 0.1581 µM) was 0.545. For the same compound, the relative viability ([11]; first compound 0.5 µM) was 0.426, the relative viability ([12]; first compound 0.005 µM) was 0.597 and the relative viability ([12]; first compound 0.01581 µM) was 0.488. For the same compound, the relative viability ([12]; first compound 0.05 µM) was 0.41, the relative viability ([12]; first compound 0.1581 µM) was 0.337 and the relative viability ([12]; first compound 0.5 µM) was 0.225. For the same compound, the relative viability ([13]; first compound 0.005 µM) was 0.338, the relative viability ([13]; first compound 0.01581 µM) was 0.302 and the relative viability ([13]; first compound 0.05 µM) was 0.196. For the same compound, the relative viability ([13]; first compound 0.1581 µM) was 0.0956, the relative viability ([13]; first compound 0.5 µM) was 0.0977 and the relative viability ([14]; first compound 0.005 µM) was 0.991. For the same compound, the relative viability ([14]; first compound 0.01581 µM) was 0.93, the relative viability ([14]; first compound 0.05 µM) was 0.987 and the relative viability ([14]; first compound 0.1581 µM) was 0.985. The relative viability ([14]; first compound 0.5 µM) was 0.94.

For COc1cc2nccc(Oc3ccc(NC(=O)Nc4cc(C)on4)c(Cl)c3)c2cc1OC [Tivozanib] + Cc1nc(Nc2ncc(C(=O)Nc3c(C)cccc3Cl)s2)cc(N2CCN(CCO)CC2)n1 [Dasatinib] (partner 0.075 µM), the relative viability ([2]; first compound 0.005 µM) was 0.31, the relative viability ([2]; first compound 0.01581 µM) was 0.299 and the relative viability ([2]; first compound 0.05 µM) was 0.333. The relative viability ([2]; first compound 0.1581 µM) was 0.262, the relative viability ([2]; first compound 0.5 µM) was 0.22 and the relative viability ([3]; first compound 0.005 µM) was 0.365. The relative viability ([3]; first compound 0.01581 µM) was 0.387, the relative viability ([3]; first compound 0.05 µM) was 0.466 and the relative viability ([3]; first compound 0.1581 µM) was 0.263. It also gave a relative viability ([3]; first compound 0.5 µM) of 0.362, a relative viability ([4]; first compound 0.005 µM) of 0.136 and a relative viability ([4]; first compound 0.01581 µM) of 0.165. For the same compound, the relative viability ([4]; first compound 0.05 µM) was 0.174, the relative viability ([4]; first compound 0.1581 µM) was 0.141 and the relative viability ([4]; first compound 0.5 µM) was 0.184. The relative viability ([5]; first compound 0.005 µM) was 0.851, the relative viability ([5]; first compound 0.01581 µM) was 0.909 and the relative viability ([5]; first compound 0.05 µM) was 0.95. The relative viability ([5]; first compound 0.1581 µM) was 0.834, the relative viability ([5]; first compound 0.5 µM) was 0.796 and the relative viability ([9]; first compound 0.005 µM) was 0.301. It also gave a relative viability ([9]; first compound 0.01581 µM) of 0.333, a relative viability ([9]; first compound 0.05 µM) of 0.326 and a relative viability ([9]; first compound 0.5 µM) of 0.33. For the same compound, the relative viability ([10]; first compound 0.005 µM) was 0.401, the relative viability ([10]; first compound 0.01581 µM) was 0.486 and the relative viability ([10]; first compound 0.05 µM) was 0.549. It also gave a relative viability ([10]; first compound 0.1581 µM) of 0.551, a relative viability ([10]; first compound 0.5 µM) of 0.529 and a relative viability ([11]; first compound 0.005 µM) of 0.731. The relative viability ([11]; first compound 0.01581 µM) was 0.9, the relative viability ([11]; first compound 0.05 µM) was 0.836 and the relative viability ([11]; first compound 0.1581 µM) was 0.845. The relative viability ([11]; first compound 0.5 µM) was 0.74, the relative viability ([15]; first compound 0.005 µM) was 0.509 and the relative viability ([15]; first compound 0.01581 µM) was 0.56. It also gave a relative viability ([15]; first compound 0.05 µM) of 0.578 and a relative viability ([15]; first compound 0.5 µM) of 0.527.

— the supplement of paper PMC10307832
